For 13 molecules, GI50 and IC50 results are on record in US20140051679A1, “KINASE INHIBITORS AND METHOD OF TREATING CANCER WITH SAME” (UNIVERISTY HEALTH NETWORKS, priority 2011, published 2014).

In assay [1] the test system is HCT116 colon cancer cells. As to the kind of experiment: Cell growth inhibition, Sulforhodamine B assay, HCT116. To be noted: Homo sapiens, HCT-116, 120 h, 5 days culture, SRB assay, read-out: Cell Line GI50 Range HCT116. Type of assay: cell-based. In general terms: The SRB assay estimates cell density from bound dye.
The test system of assay [2] is MDA-MB-468 breast cancer cells. As to the kind of experiment: Cell growth inhibition, Sulforhodamine B assay, MDA-MB-468. Conditions: Homo sapiens, 120 h, 5 days culture, SRB assay, read-out: Cell Line GI50 Range MDA-MB-468. The assay is classed as cell-based.
Another assay addresses T1, human TTK (Homo sapiens, UniProt P33981).
T1 construct: amino terminal GST fusion of full length human TTK; purchased Invitrogen
T1 sequence (P33981 1-857): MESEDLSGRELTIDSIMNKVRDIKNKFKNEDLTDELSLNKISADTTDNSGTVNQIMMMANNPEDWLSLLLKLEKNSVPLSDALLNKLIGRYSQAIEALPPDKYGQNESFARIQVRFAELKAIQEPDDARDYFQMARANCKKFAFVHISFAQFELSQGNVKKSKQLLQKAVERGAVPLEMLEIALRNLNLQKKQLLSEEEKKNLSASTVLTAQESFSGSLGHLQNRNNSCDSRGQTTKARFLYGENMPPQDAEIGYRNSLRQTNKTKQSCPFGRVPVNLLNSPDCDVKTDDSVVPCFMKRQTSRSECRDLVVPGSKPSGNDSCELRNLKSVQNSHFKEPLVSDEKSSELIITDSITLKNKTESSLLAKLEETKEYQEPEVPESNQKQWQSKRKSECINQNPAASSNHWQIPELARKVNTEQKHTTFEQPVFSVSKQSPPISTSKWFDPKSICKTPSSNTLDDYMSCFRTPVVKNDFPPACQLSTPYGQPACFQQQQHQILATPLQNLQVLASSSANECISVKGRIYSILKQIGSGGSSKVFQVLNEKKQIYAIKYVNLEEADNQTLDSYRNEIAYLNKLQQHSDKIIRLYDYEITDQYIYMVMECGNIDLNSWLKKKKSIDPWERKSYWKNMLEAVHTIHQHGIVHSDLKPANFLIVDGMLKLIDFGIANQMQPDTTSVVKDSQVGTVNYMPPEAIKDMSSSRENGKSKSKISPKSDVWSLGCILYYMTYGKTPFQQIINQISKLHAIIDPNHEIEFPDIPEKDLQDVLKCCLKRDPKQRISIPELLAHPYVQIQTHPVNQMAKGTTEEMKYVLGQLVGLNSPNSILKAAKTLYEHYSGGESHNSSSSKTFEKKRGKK
Kind of assay: TTK inhibition assay (indirect ELISA). The assay is classed as biochemical. Conditions: GST-TTK 0.68 nM, 16 μM ATP; read-out: IC50 Ranges TTK. A general note: In an ELISA, binding on a coated surface is turned into a signal by an enzyme label.

The test system of another assay is HT29 colon cancer cells. Kind of assay: Cell growth inhibition, Sulforhodamine B assay, HT29. Type of assay: cell-based. To be noted: Homo sapiens, HT-29, 120 h, 5 days culture, SRB assay, read-out: Cell Line GI50 Range HT29.
Another assay concerns the target T2, human PLK4 (Homo sapiens, UniProt O00444).
T2 construct: amino terminal GST fusion of residues 1-391 of human PLK4; made in house; host or cells: E. coli
T2 sequence (O00444 1-391): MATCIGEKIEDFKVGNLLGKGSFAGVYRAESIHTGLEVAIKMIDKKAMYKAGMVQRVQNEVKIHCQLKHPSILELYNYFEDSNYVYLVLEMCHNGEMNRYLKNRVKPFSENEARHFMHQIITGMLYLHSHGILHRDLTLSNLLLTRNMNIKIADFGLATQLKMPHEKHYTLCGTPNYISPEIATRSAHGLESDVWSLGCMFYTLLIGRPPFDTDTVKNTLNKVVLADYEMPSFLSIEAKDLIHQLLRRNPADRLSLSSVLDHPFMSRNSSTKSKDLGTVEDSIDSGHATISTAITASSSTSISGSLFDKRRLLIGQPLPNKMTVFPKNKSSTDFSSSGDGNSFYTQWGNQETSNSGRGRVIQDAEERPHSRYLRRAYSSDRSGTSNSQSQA
Kind of assay: PLK4 inhibition assay (indirect ELISA). The assay is classed as biochemical. Conditions: GST-PLK4 4 nM, 15 μM ATP; read-out: IC50 Ranges PLK4. Summed up:
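Compounds were tested either at a single 10 μM dose or across 10-point titrations (typically 0.5 to 0.001 μM), preincubated 15 min with 4 nM GST-PLK4 (human 1-391, dephosphorylated) before 15 μM ATP was added. MBP substrate phosphorylation over 30 min, pH 7.5 HEPES/MgCl2 buffer, read by HRP/TMB ELISA (450 nm). % inhibition vs. high-activity control; IC50 by logistic fit.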

The subject of assay [3] is OVCAR-3 ovarian cancer cells. As to the kind of experiment: Cell growth inhibition, Sulforhodamine B assay, OVCAR-3. Type of assay: cell-based. Conditions: Homo sapiens, 120 h, 5 days culture, SRB assay, read-out: Cell Line GI50 Range OVCAR-3.
Protocol: (§1) Breast cancer cells (MDA-MB-231, MDA-MB-468), colon cancer cells (HCT116, HT29) and ovarian cancer cells (PA-1, OVCAR-3) were seeded (1000 to 4000 in 80 μl per well depending on the cell growth rate) into 96 well plates 24 hours before compound overlay. Compounds were prepared as 10 mM stock solutions in 100% DMSO which were diluted with DMEM (Dulbecco's Modified Eagle's Medium) cell growth Medium (Invitrogen, Burlington, ON, Canada) containing 10% FBS (Fetal Bovine Serum) to concentrations ranging from 50 nM to 250 μM. Aliquots (20 μl) from each concentration were overlaid to 80 μl of the pre-seeded cells in the 96 well plates to make final concentrations of 10 nM to 50 μM. The cells were cultured for 5 days before the Sulforhodamine B assay (SRB) was performed to determine the compound's cell growth inhibition activity.
(§2) Sulforhodamine B (purchased from Sigma, Oakville, ON, Canada) is a water-soluble dye that binds to the basic amino acids of the cellular proteins. Thus, colorimetric measurement of the bound dye provides an estimate of the total protein mass that is related to the cell number. the cells are fixed in situ by gently aspirating off the culture media and adding 50 μl ice cold 10% Trichloroacetic Acid (TCA) per well and incubate at 4° C. for 30-60 min, The plates are washed with water five times and allowed to air dry for 5 min. Addition of 50 μl 0.4% (w/v) SRB solution in 1% (v/v) acetic acid to each well and incubatation for 30 min at RT completes the staining reaction. Following staining, plates are washed four times with 1% acetic acid to remove unbound dye and then allowed to air dry for 5 min. The stain is solubilized with 100 μl of 10 mM Tris pH 10.5 per well. Absorbance is read at 570 nm.
(§3) The percentage (%) of relative growth inhibition was calculated by comparing to DMSO treated only cells (100%). […] The GI50 was calculated using GraphPad PRISM software (GraphPad Software, Inc., San Diego, Calif., USA).
Assay [4] deals with MDA-MB-231 breast cancer cells. Kind of assay: Cell growth inhibition, Sulforhodamine B assay, MDA-MB-231. The assay is classed as cell-based. Conditions: Homo sapiens, 120 h, 5 days culture, SRB assay, read-out: Cell Line GI50 Range MDA-MB-231.

Protocol for HT29 colon cancer cells: as §1, §2, §3
Protocol for human TTK: Active TTK was purchased from Invitrogen as an amino terminal GST fusion of full length human TTK.
TTK activity was measured using an indirect ELISA detection system. GST-TTK (0.68 nM) was incubated in the presence of 16 μM ATP (Sigma cat#A7699), 50 mM Hepes pH 7.2, 1 mM EGTA, 10 mM MgCl2, and 0.1% Pluronic in a 96 well microtitre plate pre-coated with amino terminal 6 histidine, sumo tagged TTK (amino acid residues 1-275). The reaction was allowed to proceed for 30 minutes, followed by 5 washes of the plate with Wash Buffer (phosphate buffered saline supplemented with 0.2% Tween 20), and incubation for 30 minutes with a 1:3000 dilution of primary antibody (Cell Signaling cat#9381). The plate was washed 5 times with Wash Buffer, incubated for 30 minutes in the presence of secondary antibody coupled to horse radish peroxidase (BioRad cat#1721019, 1:3000 concentration), washed an additional 5 times with Wash Buffer, and incubated in the presence of TMB substrate (Sigma cat#T0440). The colourimetric reaction was allowed to continue for 5 minutes, followed by addition of stop solution (0.5 N sulphuric acid), and quantified by detection at 450 nm with either a monochromatic or filter based plate reader (Molecular Devices M5 or Beckman DTX880, respectively).
Compounds were pre-incubated in the presence of enzyme for 5 minutes prior to addition of ATP and the activity remaining quantified using the above described activity assay. The % Inhibition of a compound was determined using the following formula; % Inhibition=100×(1−(experimental value−background value)/(high activity control−background value)). The IC50 value was determined using a non-linear 4 point logistic curve fit (XLfit4, IDBS) with the formula; (A+(B/(1+((x/C)̂D)))), where A=background value, B=range, C=inflection point, D=curve fit parameter.

One may read the GI50 as the concentration at which growth is held to half of that of the control. One may read the IC50 as the concentration needed to halve the response being measured. `CN1CCC(Oc2ccc(-c3n[nH]c4ccc(NC(=O)N5CCCc6ccccc65)cc34)cc2)CC1` [Example A73, N-(3-(4-((1-methylpiperidin-4-yl)oxy)phenyl)-1H-indazol-5-yl)-3,4-dihydroquinoline-1(2H)-carboxamide]: the GI50 in assay [1] is no more than 5 µM; in assay [2], no more than 5 µM; with HT29 colon cancer cells, no more than 5 µM; in assay [3], 5 to 20 µM; in assay [4], no more than 5 µM. Also, the IC50 on human TTK and on human PLK4 was no more than 5 µM throughout.
As for `CN1CCC(Oc2ccc(-c3n[nH]c4ccc(NC(=O)Nc5ccccc5F)cc34)cc2)CC1` [Example A56, 1-(2-fluorophenyl)-3-(3-(4-((1-methylpiperidin-4-yl)oxy)phenyl)-1H-indazol-5-yl)urea], the concentration for 50% growth inhibition (GI50) in assay [1] is no more than 5 µM; in assay [2], no more than 5 µM; in the assay with HT29 colon cancer cells, no more than 5 µM; in assay [3], 5 to 20 µM; in assay [4] it was no more than 5 µM. In addition, the half-inhibitory concentration (IC50) at human TTK and at human PLK4 was no more than 5 µM in each case.
In the case of `O=C(Nc1ccc2[nH]nc(-c3ccc(NC4CCCCC4)cc3)c2c1)C(c1ccsc1)N1CCCC1` (stereo not shown) [Example A68, N-(3-(4-(cyclohexylamino)phenyl)-1H-indazol-5-yl)-2-(pyrrolidin-1-yl)-2-(thiophen-3-yl)acetamide], the GI50 (in assay [1]; in assay [2]; with HT29 colon cancer cells; in assay [3]; in assay [4]) was no more than 5 µM throughout. In addition, the half-inhibitory concentration (IC50) at human TTK and at human PLK4 was no more than 5 µM in each case.
As to `Cc1cc(-c2n[nH]c3ccc(NC(=O)C(c4ccsc4)N4CCCC4)cc23)ccc1N1CCOCC1` (stereo not shown) [Example A59, N-(3-(3-methyl-4-morpholinophenyl)-1H-indazol-5-yl)-2-(pyrrolidin-1-yl)-2-(thiophen-3-yl)acetamide], the 50% growth inhibitory concentration (GI50) was no more than 5 µM in assay [1]; no more than 5 µM in assay [2]; no more than 5 µM in the assay on HT29 colon cancer cells; 5 to 20 µM in assay [3]; no more than 5 µM in assay [4]. Also, the IC50 on human TTK and at human PLK4 was no more than 5 µM each time.
Regarding `O=C(NC(c1ccccc1)C1CC1)c1ccc2[nH]nc(-c3ccc(N4CCOCC4)c(F)c3)c2c1` (stereo not shown) [Example A65, N-(cyclopropyl(phenyl)methyl)-3-(3-fluoro-4-morpholinophenyl)-1H-indazole-5-carboxamide], the GI50 was no more than 5 µM in assay [1]; no more than 5 µM in assay [2]; no more than 5 µM in the assay with HT29 colon cancer cells; 5 to 20 µM in assay [3]; no more than 5 µM in assay [4]. Besides, the half-maximal inhibitory concentration (IC50) on human TTK and on human PLK4 was no more than 5 µM in each case.
For `CN1CCC(Oc2ccc(-c3n[nH]c4ccc(C(=O)NCC(C)(C)N5CCOCC5)cc34)cc2)CC1` [Example A74, N-(2-methyl-2-morpholinopropyl)-3-(4-((1-methylpiperidin-4-yl)oxy)phenyl)-1H-indazole-5-carboxamide], the GI50 in assay [1] was no more than 5 µM; in assay [2], no more than 5 µM; with HT29 colon cancer cells it was no more than 5 µM; in assay [3], 20 to 50 µM; in assay [4] it was 5 to 20 µM. Further, the concentration for half-maximal inhibition (IC50) on human TTK and at human PLK4 was no more than 5 µM throughout.
With `C[C@H](NC(=O)c1ccc2[nH]nc(-c3ccc(N4CCOCC4)cc3)c2c1)C1CCCCC1` [Example A40, (S)—N-(1-cyclohexylethyl)-3-(4-morpholinophenyl)-1H-indazole-5-carboxamide], the GI50 (in assay [1]; in assay [2]; in the assay with HT29 colon cancer cells; in assay [3]; in assay [4]) was no more than 5 µM in each case. Besides, the IC50 at human TTK and on human PLK4 was no more than 5 µM throughout.
In the case of `O=C(Nc1ccc2[nH]nc(-c3ccc(N4CCOCC4)c(F)c3)c2c1)C(c1ccsc1)N1CCCC1` (stereo not shown) [Example A60, N-(3-(3-fluoro-4-morpholinophenyl)-1H-indazol-5-yl)-2-(pyrrolidin-1-yl)-2-(thiophen-3-yl)acetamide], the concentration for 50% growth inhibition (GI50) in assay [1] is no more than 5 µM; in assay [2] it was no more than 5 µM; in the assay on HT29 colon cancer cells, no more than 5 µM; in assay [3], 5 to 20 µM; in assay [4] it was no more than 5 µM. The IC50 at human TTK and on human PLK4 was no more than 5 µM each time.
As for `CN1CCC(Oc2ccc(-c3n[nH]c4ccc(C(=O)N[C@@H]5CCCc6ccccc65)cc34)cc2)CC1` [Example A26, (R)-3-(4-((1-methylpiperidin-4-yl)oxy)phenyl)-N-(1,2,3,4-tetrahydronaphthalen-1-yl)-1H-indazole-5-carboxamide], the concentration for 50% growth inhibition (GI50) (in assay [1]; in assay [2]; with HT29 colon cancer cells; in assay [3]; in assay [4]) was no more than 5 µM each time. The IC50 on human TTK and on human PLK4 was no more than 5 µM throughout.
On to `O=C(NC(c1ccccc1)C1CC1)c1ccc2[nH]nc(-c3cccc(N4CCOCC4)c3)c2c1` (stereo not shown) [Example A61, N-(cyclopropyl(phenyl)methyl)-3-(3-morpholinophenyl)-1H-indazole-5-carboxamide], for which the concentration for 50% growth inhibition (GI50) was no more than 5 µM in assay [1]; 5 to 20 µM in assay [2]; no more than 5 µM in the assay with HT29 colon cancer cells; 5 to 20 µM in assay [3]; 5 to 20 µM in assay [4]. In addition, the 50% inhibitory concentration (IC50) on human TTK and at human PLK4 was no more than 5 µM in each case.
Consider `C[C@@H](NC(=O)c1ccc2[nH]nc(-c3ccc(N4CCOCC4)cc3)c2c1)C1CCCCC1` [Example A48, (R)—N-(1-cyclohexylethyl)-3-(4-morpholinophenyl)-1H-indazole-5-carboxamide], for which the GI50 is no more than 5 µM in assay [1]; no more than 5 µM in assay [2]; no more than 5 µM in the assay with HT29 colon cancer cells; 5 to 20 µM in assay [3]; no more than 5 µM in assay [4]. The concentration for half-maximal inhibition (IC50) at human TTK and at human PLK4 was no more than 5 µM each time.
Consider `O=C(Nc1ccc2[nH]nc(-c3ccc(N4CCOCC4)cc3)c2c1)Nc1ccccc1Cl` [Example A66, 1-(2-chlorophenyl)-3-(3-(4-morpholinophenyl)-1H-indazol-5-yl)urea], for which the GI50 in assay [1] was no more than 5 µM; in assay [2] it was 5 to 20 µM; in the assay on HT29 colon cancer cells it was no more than 5 µM; in assay [3] it was 5 to 20 µM; in assay [4], 5 to 20 µM. In addition, the half-maximal inhibitory concentration (IC50) at human TTK and on human PLK4 was no more than 5 µM each time.
As to `CN1CCC(Oc2ccc(-c3n[nH]c4ccc(NC(=O)Nc5ccccc5Cl)cc34)cc2)CC1` [Example A62, 1-(2-chlorophenyl)-3-(3-(4-((1-methylpiperidin-4-yl)oxy)phenyl)-1H-indazol-5-yl)urea], the GI50 (in assay [1]; in assay [2]; with HT29 colon cancer cells; in assay [3]; in assay [4]) was no more than 5 µM throughout. The IC50 on human TTK and on human PLK4 was no more than 5 µM each time.
